Experimental data: the NIST ThermoML archive (doi:10.1016/j.jct.2014.06.001)

Conditions: for mass density: 293 K, 101.33 kPa, Pycnometric method; for vapor or sublimation pressure: Transpiration method

CCN1C(=O)CC(=O)N(CC)C1=S [1,3-diethyl-2-thiobarbituric acid]
Conditions | mass density [kg/m3]
Crystal | 1610

Crystal
Conditions | vapor or sublimation pressure [kPa]
327.3 K | 0.00039
333.6 K | 0.00074
337.7 K | 0.0011
340 K | 0.00135
343 K | 0.00185
348 K | 0.00293
349.1 K | 0.0034
351 K | 0.00384
353.3 K | 0.00489
354.1 K | 0.00551
355.3 K | 0.00634
358.1 K | 0.00756
362.4 K | 0.01184
367.7 K | 0.01865
368.6 K | 0.02034
370.7 K | 0.02408
372.2 K | 0.02684
375.7 K | 0.03524
375.9 K | 0.03465

CCN1C(=O)CC(=O)N(CC)C1=O [1,3-diethylbarbituric acid]
Conditions | mass density [kg/m3]
Crystal | 1320

Liquid
Conditions | vapor or sublimation pressure [kPa]
328.9 K | 0.00282
333.8 K | 0.00441
339.1 K | 0.00675
346 K | 0.0115
351.2 K | 0.01744
356.2 K | 0.02535
360.3 K | 0.03131
366 K | 0.04999
371.3 K | 0.07142
376.8 K | 0.09721
380.7 K | 0.1327
